Patent US10294202B2, “Pyrrolidinones as herbicides” (FMC Corporation, priority 2013, dated 2019)

Tests used:
Test in all cases: Test D pre-/postemergence herbicide test
field poppy = format: in vivo, Papaver rhoeas; conditions: for Plant response rating: Field Poppy, scale 0 to 100; for Plant response rating, Field Poppy: scale 0 to 100 (0 no effect, 100 complete control)
Source text: (§1) Seeds of plant species selected from bluegrass (annual bluegrass, Poa annua), blackgrass (Alopecurus myosuroides), canarygrass (littleseed canarygrass, Phalaris minor), chickweed (common chickweed, Stellaria media), galium (catchweed bedstraw, Galium aparine), bromegrass, downy (downy bromegrass, Bromus tectorum), field poppy (Papaver rhoeas), field violet (Viola arvensis), foxtail, green (green foxtail, Setaria viridis), deadnettle (henbit deadnettle, Lamium amplexicaule), ryegrass, Italian (Italian ryegrass, Lolium multiflorum), kochia (Kochia scoparia), lambsquarters (Chenopodium album), oilseed rape (Brassica napus), pigweed (Amaranthus retroflexus), chamomile (scentless chamomile, Matricaria inodora), Russian thistle (Salsola kali), speedwell (bird's-eye speedwell, Veronica persica), barley, spring (spring barley, Hordeum vulgare), wheat, spring (spring wheat, Triticum aestivum), buckwheat, wild (wild buckwheat, Polygonum convolvulus), mustard, wild (wild mustard, Sinapis arvensis), oat, wild (wild oat, Avena fatua), radish, wild (wild radish, Raphanus raphanistrum), […]), barley, winter (winter barley, Hordeum vulgare), and wheat, winter (winter wheat, Triticum aestivum) were planted into a silt loam soil and treated preemergence with test chemicals formulated in a non-phytotoxic solvent mixture which included a surfactant. At the same time, these species were planted in pots containing Redi-Earth® planting medium (Scotts Company, 14111 Scottslawn Road, Marysville, Ohio 43041) comprising spaghnum peat moss, vermiculite, wetting agent and starter nutrients and treated with postemergence applications of the test chemicals formulated in the same manner. Plants ranged in height from 2 to 18 cm (1- to 4-leaf stage). Treated plants and controls were maintained in a controlled growth environment for 7 to 21 days after which time all species were compared to controls and visually evaluated. Plant response ratings, summarized in Table D, are based on a scale of 0 to 100 where 0 is no effect and 100 is complete control. A dash (-) response means no test result.

kochia = format: in vivo, Kochia scoparia; conditions: for Plant response rating: Kochia, scale 0 to 100; for Plant response rating, Kochia: scale 0 to 100 (0 no effect, 100 complete control)
Source text: as §1

radish, wild = format: in vivo, Raphanus raphanistrum; conditions: for Plant response rating: Postemergence, Radish, Wild, scale 0 to 100; for Plant response rating, Radish, Wild: Preemergence, scale 0 to 100 (0 no effect, 100 complete control)
Source text: as §1

Russian thistle = format: in vivo, Salsola kali; conditions: for Plant response rating: Postemergence, Russian Thistle, scale 0 to 100; for Plant response rating, Russian Thistle: Preemergence, scale 0 to 100 (0 no effect, 100 complete control)
Source text: as §1

lambsquarters = format: in vivo, Chenopodium album; conditions: for Plant response rating: Lambsquarters, scale 0 to 100; for Plant response rating, Lambsquarters: scale 0 to 100 (0 no effect, 100 complete control)
Source text: as §1

## O=C1NCC(c2ccc(F)c(F)c2)C1C(=O)Nc1cccc(F)c1 (racemic) [Compound 12]
Field poppy; Postemergence, 16 g ai/ha
  Plant response rating: 0
Field poppy; Postemergence, 31 g ai/ha
  Plant response rating: 0
Field poppy; Postemergence, 62 g ai/ha
  Plant response rating: 50
Field poppy; Postemergence, 125 g ai/ha
  Plant response rating: 60
Field poppy; Postemergence, 250 g ai/ha
  Plant response rating: 80
Field poppy; Preemergence, 31 g ai/ha
  Plant response rating, Field Poppy: 0
Field poppy; Preemergence, 62 g ai/ha
  Plant response rating, Field Poppy: 0
Field poppy; Preemergence, 16 g ai/ha
  Plant response rating, Field Poppy: 0
Field poppy; Preemergence, 125 g ai/ha
  Plant response rating: 0
Field poppy; Preemergence, 250 g ai/ha
  Plant response rating: 0
kochia; Postemergence, 16 g ai/ha
  Plant response rating: 5
kochia; Postemergence, 31 g ai/ha
  Plant response rating: 5
kochia; Postemergence, 62 g ai/ha
  Plant response rating: 20
kochia; Postemergence, 125 g ai/ha
  Plant response rating: 20
kochia; Postemergence, 250 g ai/ha
  Plant response rating: 35
kochia; Preemergence, 31 g ai/ha
  Plant response rating, Kochia: 0
kochia; Preemergence, 62 g ai/ha
  Plant response rating, Kochia: 0
kochia; Preemergence, 16 g ai/ha
  Plant response rating, Kochia: 0
kochia; Preemergence, 125 g ai/ha
  Plant response rating: 0
kochia; Preemergence, 250 g ai/ha
  Plant response rating: 0
radish, wild; 16 g ai/ha
  Plant response rating: 0
  Plant response rating, Radish, Wild: 0
radish, wild; 31 g ai/ha
  Plant response rating: 0
radish, wild; 62 g ai/ha
  Plant response rating: 20
radish, wild; 125 g ai/ha
  Plant response rating: 25
radish, wild; 250 g ai/ha
  Plant response rating: 25
Russian thistle; 16 g ai/ha
  Plant response rating: 0
  Plant response rating, Russian Thistle: 0
Russian thistle; 31 g ai/ha
  Plant response rating: 0
  Plant response rating, Russian Thistle: 0
Russian thistle; 62 g ai/ha
  Plant response rating: 20
  Plant response rating, Russian Thistle: 0
Russian thistle; 125 g ai/ha
  Plant response rating: 30
  Plant response rating, Russian Thistle: 0
Russian thistle; 250 g ai/ha
  Plant response rating: 80
  Plant response rating, Russian Thistle: 0
lambsquarters; Postemergence, 16 g ai/ha
  Plant response rating: 0
lambsquarters; Postemergence, 31 g ai/ha
  Plant response rating: 0
lambsquarters; Postemergence, 62 g ai/ha
  Plant response rating: 10
lambsquarters; Postemergence, 125 g ai/ha
  Plant response rating: 10
lambsquarters; Postemergence, 250 g ai/ha
  Plant response rating: 25
lambsquarters; Preemergence, 31 g ai/ha
  Plant response rating, Lambsquarters: 0
lambsquarters; Preemergence, 62 g ai/ha
  Plant response rating, Lambsquarters: 0
lambsquarters; Preemergence, 16 g ai/ha
  Plant response rating, Lambsquarters: 0
lambsquarters; Preemergence, 125 g ai/ha
  Plant response rating: 30
lambsquarters; Preemergence, 250 g ai/ha
  Plant response rating: 30

## O=C1NCC(c2cc(F)c(F)c(F)c2)C1C(=O)Nc1ccccc1C(F)(F)F (racemic) [Compound 33]
Field poppy; Postemergence, 16 g ai/ha
  Plant response rating: 0
Field poppy; Postemergence, 31 g ai/ha
  Plant response rating: 0
Field poppy; Postemergence, 62 g ai/ha
  Plant response rating: 0
Field poppy; Postemergence, 125 g ai/ha
  Plant response rating: 0
Field poppy; Postemergence, 250 g ai/ha
  Plant response rating: 0
kochia; Postemergence, 16 g ai/ha
  Plant response rating: 0
kochia; Postemergence, 31 g ai/ha
  Plant response rating: 0
kochia; Postemergence, 62 g ai/ha
  Plant response rating: 0
kochia; Postemergence, 125 g ai/ha
  Plant response rating: 0
kochia; Postemergence, 250 g ai/ha
  Plant response rating: 10
radish, wild; 16 g ai/ha
  Plant response rating: 0
radish, wild; 31 g ai/ha
  Plant response rating: 0
radish, wild; 62 g ai/ha
  Plant response rating: 0
radish, wild; 125 g ai/ha
  Plant response rating: 0
radish, wild; 250 g ai/ha
  Plant response rating: 0
Russian thistle; 16 g ai/ha
  Plant response rating: 0
Russian thistle; 31 g ai/ha
  Plant response rating: 0
Russian thistle; 62 g ai/ha
  Plant response rating: 0
Russian thistle; 125 g ai/ha
  Plant response rating: 0
Russian thistle; 250 g ai/ha
  Plant response rating: 0
lambsquarters; Postemergence, 16 g ai/ha
  Plant response rating: 0
lambsquarters; Postemergence, 31 g ai/ha
  Plant response rating: 0
lambsquarters; Postemergence, 62 g ai/ha
  Plant response rating: 0
lambsquarters; Postemergence, 125 g ai/ha
  Plant response rating: 0
lambsquarters; Postemergence, 250 g ai/ha
  Plant response rating: 20

## O=C1NCC(c2cccc(C(F)(F)F)c2)C1C(=O)Nc1cccc(F)c1F (stereo not shown) [Compound 241]
Field poppy; Preemergence, 31 g ai/ha
  Plant response rating, Field Poppy: 90
Field poppy; Preemergence, 62 g ai/ha
  Plant response rating, Field Poppy: 95
Field poppy; Preemergence, 125 g ai/ha
  Plant response rating, Field Poppy: 95
Field poppy; Preemergence, 250 g ai/ha
  Plant response rating: 100
kochia; Preemergence, 31 g ai/ha
  Plant response rating, Kochia: 20
kochia; Preemergence, 62 g ai/ha
  Plant response rating, Kochia: 30
kochia; Preemergence, 125 g ai/ha
  Plant response rating, Kochia: 80
kochia; Preemergence, 250 g ai/ha
  Plant response rating: 70
radish, wild; 31 g ai/ha
  Plant response rating, Radish, Wild: 0
radish, wild; 62 g ai/ha
  Plant response rating, Radish, Wild: 0
radish, wild; 125 g ai/ha
  Plant response rating, Radish, Wild: 0
radish, wild; 250 g ai/ha
  Plant response rating, Radish, Wild: 0
lambsquarters; Preemergence, 31 g ai/ha
  Plant response rating, Lambsquarters: 85
lambsquarters; Preemergence, 62 g ai/ha
  Plant response rating, Lambsquarters: 90
lambsquarters; Preemergence, 125 g ai/ha
  Plant response rating, Lambsquarters: 90
lambsquarters; Preemergence, 250 g ai/ha
  Plant response rating: 90

## O=C1NCC(c2cccc(C(F)(F)F)c2)C1C(=O)Nc1ccc(F)cc1F (racemic) [Compound 207]
Field poppy; Preemergence, 31 g ai/ha
  Plant response rating, Field Poppy: 55
Field poppy; Preemergence, 62 g ai/ha
  Plant response rating, Field Poppy: 75
Field poppy; Preemergence, 125 g ai/ha
  Plant response rating, Field Poppy: 80
Field poppy; Preemergence, 250 g ai/ha
  Plant response rating: 100
kochia; Preemergence, 31 g ai/ha
  Plant response rating, Kochia: 10
kochia; Preemergence, 62 g ai/ha
  Plant response rating, Kochia: 10
kochia; Preemergence, 125 g ai/ha
  Plant response rating, Kochia: 10
kochia; Preemergence, 250 g ai/ha
  Plant response rating: 60
radish, wild; 31 g ai/ha
  Plant response rating, Radish, Wild: 15
radish, wild; 62 g ai/ha
  Plant response rating, Radish, Wild: 10
radish, wild; 125 g ai/ha
  Plant response rating, Radish, Wild: 15
radish, wild; 250 g ai/ha
  Plant response rating, Radish, Wild: 15
lambsquarters; Preemergence, 31 g ai/ha
  Plant response rating, Lambsquarters: 0
lambsquarters; Preemergence, 62 g ai/ha
  Plant response rating, Lambsquarters: 30
lambsquarters; Preemergence, 125 g ai/ha
  Plant response rating, Lambsquarters: 65
lambsquarters; Preemergence, 250 g ai/ha
  Plant response rating: 90

## O=C1NCC(c2cc(F)c(F)c(F)c2)C1C(=O)Nc1ccccc1F (racemic) [Compound 34]
Field poppy; Postemergence, 16 g ai/ha
  Plant response rating: 0
Field poppy; Postemergence, 31 g ai/ha
  Plant response rating: 0
Field poppy; Postemergence, 62 g ai/ha
  Plant response rating: 0
Field poppy; Postemergence, 125 g ai/ha
  Plant response rating: 0
Field poppy; Postemergence, 250 g ai/ha
  Plant response rating: 20
kochia; Postemergence, 16 g ai/ha
  Plant response rating: 0
kochia; Postemergence, 62 g ai/ha
  Plant response rating: 0
kochia; Postemergence, 125 g ai/ha
  Plant response rating: 10
kochia; Postemergence, 250 g ai/ha
  Plant response rating: 25
radish, wild; 16 g ai/ha
  Plant response rating: 0
radish, wild; 31 g ai/ha
  Plant response rating: 0
radish, wild; 62 g ai/ha
  Plant response rating: 0
radish, wild; 125 g ai/ha
  Plant response rating: 0
radish, wild; 250 g ai/ha
  Plant response rating: 0
Russian thistle; 16 g ai/ha
  Plant response rating: 0
Russian thistle; 31 g ai/ha
  Plant response rating: 0
Russian thistle; 62 g ai/ha
  Plant response rating: 0
Russian thistle; 125 g ai/ha
  Plant response rating: 0
Russian thistle; 250 g ai/ha
  Plant response rating: 0
lambsquarters; Postemergence, 16 g ai/ha
  Plant response rating: 0
lambsquarters; Postemergence, 31 g ai/ha
  Plant response rating: 0
lambsquarters; Postemergence, 62 g ai/ha
  Plant response rating: 0
lambsquarters; Postemergence, 125 g ai/ha
  Plant response rating: 0
lambsquarters; Postemergence, 250 g ai/ha
  Plant response rating: 20
